Patent publication US20120115782A1, “COMPOSITIONS AND METHODS FOR TREATING OR INHIBITING LIVER INJURY” (Yale University, priority 2009, published 2012)

Assays:
[1] = tested on: APAP induced hepatotoxicity in wild-type mice; test: Acetaminophen (APAP) induced hepatotoxicity in mice: survival, serum ALT, liver histology; assay type: in vivo, mouse (C57BL/6)
Protocol: Animals. C57BL/6 mice were purchased from commercial sources. NALP3 −/−, IL-18 −/− ASC −/−, IPAF −/− and TLR9 −/− mice were backcrossed nine generations onto the C57BL/6 background. Caspase 1 −/− mice were backcrossed 5-6 generations onto the C57BL/6 background. These mice have been described previously (39, 40). IL-1β was neutralized in by using the anti-IL-1β antibody from clone B122 (a gift of R. Schreiber, Washington University) at a dose of 0.2 mg/mouse iv twice a day for a total of 48 hours after giving APAP. Control mice received Armenian hamster isotype control antibody. For survival experiments animals were euthanized when they became moribund using criteria of lack of response to stimuli or lack of righting reflex. Animal protocols were approved by the Yale University animal care and use committee. [include references for IPAF−/− (M. Lara-Tejero et al. JEM 2006) and IL-18−/−. Need to add TLR9−/− and TLR3−/−] Acetaminophen induced hepatotoxicity. APAP (Sigma, Mo.) solution was made fresh for each experiment in PBS at 20 mg/ml and heated in a water bath to 55° C. to dissolve. APAP was dosed at 500 mg/kg and injected I.P after 15 hrs of starvation. Animals were euthanized by ketamine/xylazine injection at 12 hours for collection of serum, isolation of liver lymphocytes or collection of liver tissue for histology, or they were observed every four hours for 72 hours until they reached criteria for euthanasia (lack of response to stimuli or lack of righting reflex).
Aspirin/clopidogrel/SC-560. Aspirin (Sigma, Mo.) was made fresh for each experiment. For dosing prior to APAP it was dissolved in single deionized water at 60 mg/l and heated to 42° C. with rapid stirring to dissolve, then rapidly placed in an ice water bath to cool. Aspirin in water was given to the mice 60-72 hours prior to APAP injection. Assuming water consumption of 3-5 ml per day this dose would be equivalent to a 300-500 mg dose in an 80 kg adult human. For co-administration of APAP and aspirin, aspirin was gavaged at a dose of 6 mg/kg in a volume of 100 ul of water immediately after ip injection of APAP. Clopidogrel (Gilead Pharmaceuticals, CA.) was dissolved in PBS at 6 mg/ml and administered by gavage of 100 ul, 30 mg/kg, every 24 hours beginning 48 hours prior and ending 24 hours after APAP injection. Cox-1 inhibitor (SC-560). SC-560 (Cayman chemical, MI) was dissolved at 50 mg/ml in DMSO and further dissolved in PBS in order to gavage a dose of 5 mg/kg in 100 ul. It was administered twice per day beginning 60 hours prior to Tylenol and continued for 48 hours after APAP injection as previously established (41).
Uric Acid Peritonitis. Peritonitis was induced with uric acid crystals as previously described by injecting 3 mg of MSU intraperitoneally per mouse (27). Three hours after injection peritoneal lavage was performed on mice euthanized by isoflurane inhalation. Neutrophil infiltration was evaluated by flow cytometry. The percent of Gr-1 (BD Pharmingen, CA) positive cells was multiplied by the total cell counts. Liver sinusoidal endothelial cell (LSEC) isolation. After in-situ pronase digestion the non-parenchymal cell suspension is centrifuged for 5 min at 100 g to remove most of the parenchymal cells. This process is repeated until no pellet is observed. The supernatant enriched in LSEC is centrifuged for 10 min at 350 g. The pellet is resuspended in PBS and centrifuged for 10 min at 350 g. The cells are resuspended in. PBS and layered (3.3 ml) on the top of two-step percoll gradient (put the 5 ml of 50% percoll at the bottom and put the 6.6 ml of 25% percoll at the top). The gradients are centrifuged at 900 g for 20 min and the intermediate layer included LSEC is collected and cultured in the media (EGM™-2MV—Microvascular Endothelial Cell Medium-2, CAMBREX, Charles City, Iowa). ODN2088 and IRS 954 injection.

pro-IL-1β transcript = test: Q-PCR of whole liver 12 hours after APAP: pro-IL-1β; assay type: in vivo, mouse; details: aspirin pre-treatment in drinking water
Protocol: (§1) Uric Acid Peritonitis. Peritonitis was induced with uric acid crystals as previously described by injecting 3 mg of MSU intraperitoneally per mouse (27). Three hours after injection peritoneal lavage was performed on mice euthanized by isoflurane inhalation. Neutrophil infiltration was evaluated by flow cytometry. The percent of Gr-1 (BD Pharmingen, CA) positive cells was multiplied by the total cell counts. Liver sinusoidal endothelial cell (LSEC) isolation. After in-situ pronase digestion the non-parenchymal cell suspension is centrifuged for 5 min at 100 g to remove most of the parenchymal cells. This process is repeated until no pellet is observed. […] TLR9 antagonist (ODN2088, 50 microg×2) or PBS, were injected ip into wild-type mice immediately after and at 6 hours after APAP injection and total mouse liver was obtained 12 hours after APAP injection for quantitative Q-PCR for IL-1β. […] Quantitative Real-time PCR. […] Expression of glyceraldehyde 3-phosphate dehydrogenase was used to standardize the samples, and the results were expressed as a ratio compared with untreated HSCs. Quantitative Real-time PCR for mRNA expression of IL-18, IL-1β, TNF-α and IFN-γ. […] Quantitative real-time PCR (Q-PCR) was performed for IL-18 and IL-1β using commercial primer-probe sets (Applied Biosystems, CA) and the Applied Biosystem 7500 real time PCR system. […]

[2] = tested on: APAP toxicity in mice and rats; details: aspirin 200-600 mg/kg; cited from earlier work
TNF-α = test: Q-PCR of whole liver after APAP: TNF-α; assay type: in vivo, mouse; details: aspirin treatment
Protocol: as §1

IL-1β = test: ELISA for serum IL-1β after APAP; assay type: in vivo, mouse; details: ASA in drinking water
[3] = tested on: THP1 cells (pro-IL-1β transcript); test: THP1 cells stimulated with LPS, real-time PCR for pro-IL-1β; assay type: cell-based, human; details: overnight with aspirin (1.5 mM, 0.15 mM), then LPS 10 μg/ml for 8 hours
Protocol: as §1

pro-IL-18 transcript = test: Q-PCR of whole liver 12 hours after APAP: pro-IL-18; assay type: in vivo, mouse; details: aspirin pre-treatment in drinking water
Protocol: as §1

IFN-γ = test: Q-PCR of whole liver after APAP: IFN-γ; assay type: in vivo, mouse; details: aspirin treatment
Protocol: as §1

NALP3 inflammasome = test: Uric acid (MSU crystal) peritonitis, model of NALP3 inflammasome activation; assay type: in vivo; details: low dose aspirin (60 mg/l) in drinking water three days prior; lavage 3 hours after MSU 3 mg/mouse ip
Protocol: as §1

COc1ccc(-n2nc(C(F)(F)F)cc2-c2ccc(Cl)cc2)cc1 [SC-560]
protection against APAP toxicity (survival) ([1]; SC-560 gavage 5 mg/kg twice daily, from 60 hours prior to 48 hours after APAP): did not protect

CC(=O)Oc1ccccc1C(=O)O [aspirin, acetylsalicylic acid]
increase in pro-IL-1β message by APAP, whole liver (pro-IL-1β transcript): reduced to normal levels
liver injury from APAP [2]: reduce liver injury
survival from APAP [2]: not improve survival
expression of TNF-α, whole liver after APAP (TNF-α): reduced
serum IL-1β levels induced by APAP (IL-1β): significant reduction
up-regulation of pro-IL-1β transcript by LPS in THP1 cells [3]: reduced
increase in pro-IL-18 message by APAP, whole liver (pro-IL-18 transcript): reduced to normal levels
survival after APAP ([1]; aspirin 60 mg/l in drinking water for 3 days before APAP 500 mg/kg ip, 72 hours): markedly improved survival
survival, aspirin given concordantly with APAP ([1]; aspirin gavaged 6 mg/kg immediately after ip APAP): 43%+/−11%
liver histology (H&E) 12 hours after APAP ([1]; aspirin in drinking water three days prior to APAP): significant reduction in APAP induced liver injury and hemorrhage
serum ALT 12 hrs after APAP ([1]; pre-treatment with aspirin in drinking water): significantly lower serum ALT
expression of IFN-γ, whole liver after APAP (IFN-γ): reduced
neutrophil exudates (Gr-1 positive) in MSU peritonitis (NALP3 inflammasome): eightfold reduction

COC(=O)[C@H](c1ccccc1Cl)N1CCc2sccc2C1 [clopidogrel]
protection against APAP toxicity (survival) ([1]; clopidogrel gavage 30 mg/kg every 24 hrs, from 48 hours prior to 24 hours after APAP): did not protect
